Values of other authors, collected in patent publication US4960596A (Ethypharm, priority 1987, dated 1990).
Counter-ions that a name gives are not always drawn.

How the values were obtained:
[1] = literature
sodium-potassium pump = settings: smooth muscle cells and other types of cell
[2] = test system: special channels to be found in the membranes of a variety of cells (calcium)

Q: For `COc1ccc(C2Sc3ccccc3N(CCN(C)C)C(=O)C2OC(C)=O)cc1` (stereo not drawn) [Diltiazem, Diltiazem hydrochloride], which “heart pacemaker activity and auriculo-ventricular node conduction” value (heart muscle) is on record?
A: Its value is “depressive effective on heart pacemaker activity and on auriculo-ventricular node conduction resulting in a negative chronotropic effect”.

Q: And the inotropic effect (heart muscle)?
A: The inotropic effect was “weak negative inotropic effect on the heart muscle”.

Q: And the “effect on smooth muscle” value (smooth muscle)?
A: Its value is “vasodilatation of smooth muscle”.

Q: What about the half life [1] of the same compound?
A: The half life was “four hours to seven hours”.

Q: What about the intra-cellular sodium (sodium-potassium pump) of the same compound?
A: The intra-cellular sodium was “reduces intra-cellular sodium by stimulating the sodium-potassium pump”.

Q: And the calcium inflow [2]?
A: Its calcium inflow is “inhibit the inflow of calcium”.
